Assay results from ChEMBL document CHEMBL4673326, “Ligand-based optimization and biological evaluation of N-(2,2,2-trichloro-1-(3-phenylthioureido)ethyl)acetamide derivatives as potent intrinsically disordered protein c-Myc inhibitors” (Bioorg Med Chem Lett, 2021).
Active and inactive are the calls of the source. The rule behind the calls is not given here.

What was measured:
[1] = test system: HL-60; experiment: Antiproliferative activity against human HL-60 cells assessed as inhibition of cell proliferation incubated for 72 hrs; assay type: functional, cell-based; conditions: HL-60, 72 h
[2] = test system: HL-60; experiment: Induction of apoptosis in human HL-60 cells at 1 to 20 uM measured after 24 hrs by FITC-Annexin-v/propidium iodide staining based flow cytometry; assay type: functional, cell-based; conditions: dose 1-20 µM
[3] = target: Myc proto-oncogene protein (Homo sapiens) (UniProt P01106); experiment: Induction of c-Myc degradation in human HL-60 cells assesses as decrease in c-Myc protein level measured after 24 hrs by Western blot analysis; assay type: cell-based; conditions: dose 3.125-25 µM
Sequence of Myc proto-oncogene protein (Homo sapiens) (P01106 whole entry): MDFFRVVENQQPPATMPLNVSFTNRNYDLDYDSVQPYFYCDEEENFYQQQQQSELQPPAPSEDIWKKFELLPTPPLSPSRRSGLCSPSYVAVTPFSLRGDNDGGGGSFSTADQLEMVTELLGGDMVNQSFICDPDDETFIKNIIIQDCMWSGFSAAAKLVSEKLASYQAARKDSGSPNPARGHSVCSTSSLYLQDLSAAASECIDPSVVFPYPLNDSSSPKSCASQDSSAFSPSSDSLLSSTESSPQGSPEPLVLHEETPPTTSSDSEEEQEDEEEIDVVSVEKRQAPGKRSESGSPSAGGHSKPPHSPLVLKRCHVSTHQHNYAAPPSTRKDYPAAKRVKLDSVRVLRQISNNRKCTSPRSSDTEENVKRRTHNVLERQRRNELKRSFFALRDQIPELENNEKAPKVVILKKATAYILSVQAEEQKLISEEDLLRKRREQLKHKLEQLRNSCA

[4] = target: c-Myc/c-Max (Homo sapiens) (UniProt P01106+P61244); experiment: (§1) Inhibition of Nanoluc-tagged c-Myc/Halo-tagged MAX (unknown origin) interaction expressed in HEK293T cells assessed as degradation measured after 4 to 6 hrs by NanoBRET assay; assay type: cell-based; conditions: time 4-6 hrs
Sequence of c-Myc/c-Max (Homo sapiens) (P01106 whole entry): as above
Sequence of c-Myc/c-Max (Homo sapiens) (P61244 2-160 partner limits assumed): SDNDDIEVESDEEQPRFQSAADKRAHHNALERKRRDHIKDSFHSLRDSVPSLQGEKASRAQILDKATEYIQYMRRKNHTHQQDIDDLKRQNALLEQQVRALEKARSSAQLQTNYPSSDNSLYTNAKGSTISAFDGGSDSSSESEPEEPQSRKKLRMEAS

[5] = target: c-Myc/c-Max (Homo sapiens, UniProt P01106); experiment: as §1; assay type: cell-based
Sequence of c-Myc/c-Max (P01106 whole entry): as the sequence (P01106 whole entry) above
Sequence of c-Myc/c-Max (P61244 whole entry, further chain): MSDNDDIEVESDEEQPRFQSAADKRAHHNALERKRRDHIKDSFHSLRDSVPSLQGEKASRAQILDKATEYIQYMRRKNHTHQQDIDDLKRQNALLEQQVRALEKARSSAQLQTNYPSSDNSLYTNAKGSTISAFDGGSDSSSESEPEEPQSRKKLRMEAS

[6] = test system: HL-60; experiment: Cell cycle arrest in human HL-60 cells assessed as accumulation at S-phase at 3.125 to 6.25 uM measured after 24 hrs by propidium iodide staining based flow cytometry; assay type: functional; conditions: dose 3.125-6.25 µM
[7] = Antiproliferative activity against rat TGR-1 harboring c-Myc assessed as reduction in cell viability measured on day 3 by MTT assay; assay type: functional; conditions: TGR1, 72 h
[8] = test system: ST486; experiment: Antiproliferative activity against human ST486 assessed as reduction in cell viability measured after 2 hrs; assay type: functional, cell-based; conditions: ST486, 2 h
[9] = Antiproliferative activity against human Mutu-1 assessed as reduction in cell viability measured after 2 hrs; assay type: functional; conditions: Mutu-1, 2 h
[10] = test system: Daudi; experiment: Antiproliferative activity against human Daudi assessed as reduction in cell viability measured after 2 hrs; assay type: functional, cell-based

| Structure (SMILES) | EC50 [1] [µM] | also measured |
| --- | --- | --- |
| O=C(NC(NC(=S)Nc1ccc(Cl)cc1)C(Cl)(Cl)Cl)c1ccccc1Cl (stereo not drawn) | 5.9 |  |
| Cc1ccc(NC(=S)NC(NC(=O)CC(C)C)C(Cl)(Cl)Cl)cc1 (stereo not drawn) | 33.7 |  |
| O=C(NC(NC(=S)Nc1ccc(Cl)c(Cl)c1)C(Cl)(Cl)Cl)OCc1ccccc1 (stereo not drawn) | 8.2 |  |
| O=C(NC(NC(=S)Nc1ccc(F)cc1)C(Cl)(Cl)Cl)OCc1ccccc1 (stereo not drawn) | 11.7 |  |
| COc1ccccc1NC(=S)NC(NC=O)C(Cl)(Cl)Cl (stereo not drawn) | > 100 |  |
| O=C(NC(NC(=S)Nc1ccc(Cl)cc1Cl)C(Cl)(Cl)Cl)OCc1ccccc1 (stereo not drawn) | 10.6 |  |
| Cc1ccccc1C(=O)NC(NC(=S)Nc1ccc(Cl)c(Cl)c1)C(Cl)(Cl)Cl (stereo not drawn) | 4.5 |  |
| CCOC(=O)NC(NC(=S)Nc1ccc(C)cc1)C(Cl)(Cl)Cl (stereo not drawn) | > 50 |  |
| O=C(/C=C/c1ccccc1)NC(NC(=S)Nc1cccc2ccccc12)C(Cl)(Cl)Cl (stereo not drawn) | 3.4 |  |
| O=C(NC(NC(=S)Nc1ccccc1)C(Cl)(Cl)Cl)OCc1ccccc1 (stereo not drawn) | 16.7 |  |
| Cc1cccc(NC(=S)NC(NC(=O)CF)C(Cl)(Cl)Cl)c1 (stereo not drawn) | > 100 |  |
| CCCCCC(=O)NC(NC(=S)Nc1ccc(C)cc1)C(Cl)(Cl)Cl (stereo not drawn) | > 50 |  |
| NS(=O)(=O)c1ccc(NC(=S)NC(NC(=O)c2ccccc2)C(Cl)(Cl)Cl)cc1 (stereo not drawn) | > 50 |  |
| Cc1ccccc1C(=O)NC(NC(=S)Nc1ccccc1)C(Cl)(Cl)Cl (stereo not drawn) | 10.8 |  |
| CCCCCCCCC(=O)NC(NC(=S)Nc1ccccc1C)C(Cl)(Cl)Cl (stereo not drawn) | > 100 |  |
| O=C(NCNC(=S)Nc1ccc(Cl)cc1)c1ccccc1 | > 50 |  |
| Cc1ccc(NC(=S)NC(NC(=O)OCc2ccccc2)C(Cl)(Cl)Cl)cc1 (stereo not drawn) | 24.9 |  |
| Cc1cccc(NC(=S)NC(NC(=O)c2ccccc2C)C(Cl)(Cl)Cl)c1 (stereo not drawn) | 22.9 |  |
| COC(=O)c1ccc(NC(=S)NC(NC(=O)OCc2ccccc2)C(Cl)(Cl)Cl)cc1 (stereo not drawn) | 10.2 |  |
| COc1ccc(NC(=S)NC(NC(=O)Cc2ccccc2)C(Cl)(Cl)Cl)cc1 (stereo not drawn) | > 50 |  |
| Cc1ccc(NC(=S)NC(NC(=O)Cc2ccccc2)C(Cl)(Cl)Cl)cc1 (stereo not drawn) | > 50 |  |
| Cc1ccc(NC(=S)NC(NC(=O)c2ccc(Br)cc2)C(Cl)(Cl)Cl)cc1 (stereo not drawn) | 17.2 |  |
| O=C(NC(NC(=S)Nc1ccc(I)cc1)C(Cl)(Cl)Cl)c1cccc(I)c1 (stereo not drawn) | 3.3 | Activity [2]: Active; Activity [3]: Dose-dependent effect; inhibition [4]: Dose-dependent effect; EC50 [5]: 29.1 µM; Activity [6]: Active |
| O=C(NC(NC(=S)Nc1cccc2ccccc12)C(Cl)(Cl)Cl)OCc1ccccc1 (stereo not drawn) | 6.9 |  |
| O=C(Cc1ccccc1)NC(NC(=S)Nc1ccc(Cl)c(Cl)c1)C(Cl)(Cl)Cl (stereo not drawn) | 32.5 |  |
| Cc1ccc(NC(=S)NC(NC(=O)c2ccccc2)C(Cl)(Cl)Cl)cc1 (stereo not drawn) | 4.2 |  |

| Structure (SMILES) | EC50 [1] [µM] | also measured |
| --- | --- | --- |
| O=C(CF)NC(NC(=S)Nc1ccc(Cl)cc1)C(Cl)(Cl)Cl (stereo not drawn) | 24.8 |  |
| O=C(NC(NC(=S)Nc1ccc(Br)cc1)C(Cl)(Cl)Cl)OCc1ccccc1 (stereo not drawn) | 6.1 |  |
| Cc1cccc(NC(=S)NC(NC(=O)c2ccccc2)C(Cl)(Cl)Cl)c1 (stereo not drawn) | 10.6 |  |
| CCOC(=O)NC(NC(=S)Nc1ccc(I)cc1)C(Cl)(Cl)Cl (stereo not drawn) | 9.9 |  |
| O=C(NC(NC(=S)Nc1ccc(Cl)cc1)C(Cl)(Cl)Cl)c1ccccc1 (stereo not drawn) | 5 |  |
| Cc1ccc(NC(S)=NC(NC(=O)N(C)C)C(Cl)(Cl)Cl)cc1 (stereo not drawn) | > 50 |  |
| CC(=O)Nc1ccc(NC(=S)NC(NC(=O)c2ccccc2C)C(Cl)(Cl)Cl)cc1 (stereo not drawn) | > 50 |  |
| COc1ccc(NC(=S)NC(NC(=O)OCc2ccccc2)C(Cl)(Cl)Cl)cc1 (stereo not drawn) | > 50 |  |
| O=C(NC(NC(=S)Nc1cccc(Cl)c1)C(Cl)(Cl)Cl)OCc1ccccc1 (stereo not drawn) | 8.3 |  |
| O=C(CF)NC(NC(=S)Nc1ccccc1Cl)C(Cl)(Cl)Cl (stereo not drawn) | > 50 |  |
| Cc1ccc(N=C(S)NC(NC(=O)c2ccccc2)C(Cl)(Cl)Cl)c(C)c1 (stereo not drawn) | 8.1 |  |
| COC(=O)c1ccc(NC(=S)NC(NC(=O)c2cccc3ccccc23)C(Cl)(Cl)Cl)cc1 (stereo not drawn) | 7.3 |  |
| Cc1ccc(C(=O)NC(NC(=S)Nc2cc(C(F)(F)F)ccc2Cl)C(Cl)(Cl)Cl)cc1 (stereo not drawn) | 8.7 |  |
| CC(=O)NC(NC(=S)Nc1c(Cl)cc(Cl)cc1Cl)C(Cl)(Cl)Cl (stereo not drawn) | 24 |  |
| Cc1ccccc1C(=O)NC(NC(=S)Nc1ccccc1I)C(Cl)(Cl)Cl (stereo not drawn) | 13.8 |  |
| O=C(NC(NC(=S)Nc1ccc(Cl)cc1)C(Cl)(Cl)Cl)OCc1ccccc1 (stereo not drawn) | 6.1 |  |
| Cc1cccc(NC(=S)NC(NC(=O)Cc2ccccc2)C(Cl)(Cl)Cl)c1 (stereo not drawn) | > 100 |  |
| CC(C)C(=O)NC(NC(=S)Nc1ccc(Cl)cc1)C(Cl)(Cl)Cl (stereo not drawn) | > 100 |  |
| COC(=O)c1ccc(NC(=S)NC(NC(=O)c2ccccc2C)C(Cl)(Cl)Cl)cc1 (stereo not drawn) | 14.3 |  |
| CCOC(=O)c1cnn(-c2ccccc2)c1NC(=O)c1cc2nc(-c3ccco3)cc(C(F)(F)Cl)n2n1 |  | EC50 [7]: 0.25 µM |
| Cc1ccccc1N=C(S)NC(NC(=O)CF)C(Cl)(Cl)Cl (stereo not drawn) | > 100 |  |
| O=C(NC(NC(=S)Nc1ccc(Cl)cc1Cl)C(Cl)(Cl)Cl)c1ccccc1 (stereo not drawn) | 9.1 |  |
| CCOc1ccc2nc3cc(/N=N/c4ccc(N)nc4N)ccc3c(N)c2c1 |  | EC50 [8]: 0.5 µM; EC50 [9]: 0.5 µM; EC50 [10]: 0.5 µM |
| COC(=O)c1ccccc1NC(=S)NC(NC(=O)c1ccc(C)cc1)C(Cl)(Cl)Cl (stereo not drawn) | 23.1 |  |
| CCOC(=O)NC(NC(=S)Nc1c(Cl)cc(Cl)cc1Cl)C(Cl)(Cl)Cl (stereo not drawn) | 42.8 |  |
